Like-named read-outs stand apart in the source and are kept apart here.
Columns and labels:
[1] = biological target: IRAK1 (Homo sapiens (Human), UniProt P51617); assay: Life Technologies Adapta kinase assay, IRAK1; format: biochemical; settings: read-out: Calculated IC50, IRAK1
[2] = test system: BCL-XL; assay: Immunoblot of BCL-2 family proteins in Loucy cells; format: cell-based; settings: 12 to 48 hours
Method: (§1) At indicated time points, cellular lysates were harvested at the indicated times points and immunoblotted for the indicated proteins. […] Anti-proliferative effects were determined using cell titer glo analysis. […] Anti-proliferative effects were determined using alamarBlue® analysis. […] Anti-proliferative effects were determined using cell titer glo analysis. […] Dose: i.v. 1 mg/kg and p.o. 10 mg/kg.
(§2) Consistent with its covalent inhibitory mechanism, similar results were seen over the same time span following washout (FIGS. 6A to 6B).

[3] = test system: MCL-1 protein; assay: Immunoblot of BCL-2 family proteins in Loucy cells; format: cell-based; settings: after 12 hours
Method: as §1, §2

[4] = test system: patient-derived chronic lymphocytic leukemia (CLL) isolates; assay: Cell death of patient-derived CLL isolates, Annexin V staining, 24 hour; format: cell-based, human; settings: read-out: Pro-death signaling, average EC50 values
Method: Clinical isolates of CLL were cultured with compounds of Formula (I) or flavopiridol and assessed for cell death after a 24 hour time course by Annexin V staining. […] Anti-proliferative effect was measured using cell titer glo analysis.
PBMCs freshly isolated from peripheral blood are seeded in 24 well plates at a volume of 0.5 ml and a concentration of 2×10^6 cells/ml. Compounds and controls are added to respective wells in a total volume of 2.5 μl. Plates are mixed gently and incubated approximately 24 hours at 37° C., 5% CO2. Apoptosis was measured in all cells from each well using the Annexin V: FITC Apoptosis Detection Kit I (BD Biosciences). Normalized % death was calculated as follows: [(% Dead Drug−% Dead DMSO)/(100%−% Dead DMSO)]×100

[5] = test system: RD-ES; assay: Proliferation assay, CellTiter-Glo, 72 hour; format: cell-based; settings: Ewing's sarcoma cell line, read-out: Inhibition of proliferation, RD-ES
[6] = test system: MV4-11; assay: Proliferation assay, CellTiter-Glo, 72 hour; format: cell-based; settings: blood cancer cell line, read-out: Inhibition of proliferation, MV4-11
[7] = biological target: FLAG-CDK7 WT (Homo sapiens (Human), UniProt P50613); assay: In vitro kinase assay of FLAG-CDK7 immunoprecipitated from treated HCT116 cells; format: cell-based; settings: HCT116 cells treated 4 hours, dose-response
Chain of FLAG-CDK7 WT (P50613 whole entry): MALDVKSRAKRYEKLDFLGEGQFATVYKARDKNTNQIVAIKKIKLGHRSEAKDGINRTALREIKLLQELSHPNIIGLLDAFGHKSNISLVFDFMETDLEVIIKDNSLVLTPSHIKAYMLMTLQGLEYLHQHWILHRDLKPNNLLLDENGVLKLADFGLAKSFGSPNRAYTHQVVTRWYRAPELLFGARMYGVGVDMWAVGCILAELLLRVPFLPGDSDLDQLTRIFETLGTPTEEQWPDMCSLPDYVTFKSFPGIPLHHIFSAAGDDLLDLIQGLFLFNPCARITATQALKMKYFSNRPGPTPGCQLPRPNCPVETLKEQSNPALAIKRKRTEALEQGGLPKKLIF
Chain of FLAG-CDK7 WT (P51946 whole entry partner): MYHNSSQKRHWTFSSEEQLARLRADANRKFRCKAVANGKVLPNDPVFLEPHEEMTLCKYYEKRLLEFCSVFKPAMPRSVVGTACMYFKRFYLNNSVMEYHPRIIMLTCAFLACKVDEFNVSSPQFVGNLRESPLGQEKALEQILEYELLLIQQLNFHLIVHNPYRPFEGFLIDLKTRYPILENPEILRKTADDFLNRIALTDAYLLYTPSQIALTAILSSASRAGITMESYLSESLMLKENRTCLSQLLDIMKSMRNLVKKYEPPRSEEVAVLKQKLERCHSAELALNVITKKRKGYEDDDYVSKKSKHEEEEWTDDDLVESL
Chain of FLAG-CDK7 WT (P51948 whole entry partner): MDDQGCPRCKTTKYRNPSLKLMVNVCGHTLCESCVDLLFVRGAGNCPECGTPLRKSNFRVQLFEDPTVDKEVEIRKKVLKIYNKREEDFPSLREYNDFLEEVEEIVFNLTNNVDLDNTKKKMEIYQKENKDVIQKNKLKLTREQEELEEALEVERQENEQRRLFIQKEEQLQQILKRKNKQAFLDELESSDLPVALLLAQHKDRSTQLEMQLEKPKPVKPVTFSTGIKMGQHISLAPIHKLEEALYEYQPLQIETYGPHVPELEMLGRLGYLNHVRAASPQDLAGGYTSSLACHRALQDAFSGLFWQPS
Method: Following the treatment, the cells were washed 2-fold with cold PBS and then lysed in the following lysis buffer: 50 mM TrisHCl pH 8.0, 150 mM NaCl, 1% NP-40, 5 mM EDTA, 1 mM DTT, and protease/phosphatase cocktails. Following clearance, the lysates were treated with compound I-49 for pulldown (or CDK7 antibody for IP) overnight at 4° C. The lysates were then incubated with streptavidin agarose for pulldown (or Protein G Agarose for IP) for an additional 2-3 hours at 4° C. Agarose beads were washed 5 times with a lysis buffer and then boiled in 2X SDS for 10 minutes at 95° C.
(§3) In vitro kinase assays with immunoprecipitated proteins (or recombinant CAK complexes) were performed as follows. Kinase reactions were performed in 25 μL of final volume of reaction buffer (50 mM Hepes, pH 7.5, 150 mM NaCl, 10 mM MgCl2, 5% glycerol, 25 μM ATP, and 10 μCi of [γ-32P]ATP). Each reaction contained 1 μg of RNAP II. Incubation was at 30° C. for 30-45 min. Reactions were terminated by addition of 5 μL of 5×SDS-PAGE sample buffer and incubated at 95° C. for 5 min. Reactions were analyzed by SDS-PAGE, and the dried gel was exposed to film or PhosphorImager plate.
HCT116 cells were generated stably expressing FLAG-CDK7 WT and C312S. […] CDK7 was then immunoprecipitated (IP) from each combination treatment using a FLAG antibody, and washed IPs were subjected to in vitro kinase assays (FIG. 4F). […]

[8] = test system: MDA-MB231; assay: Proliferation assay, CellTiter-Glo, 72 hour; format: cell-based; settings: breast cancer cell line, read-out: Inhibition of proliferation, MDA-MB231
[9] = biological target: CDK7 (recombinant CAK complex) (Homo sapiens (Human), UniProt P50613); assay: In vitro kinase assay with recombinant CAK complex, with and without pre-incubation; format: biochemical; settings: 25 μM ATP, 45 minutes at 30° C.
Chain of CDK7 (recombinant CAK complex) (P50613 whole entry): as the sequence (P50613 whole entry) above
Chain of CDK7 (recombinant CAK complex) (P51946 whole entry partner): as the sequence (P51946 whole entry partner) above
Chain of CDK7 (recombinant CAK complex) (P51948 whole entry partner): as the sequence (P51948 whole entry partner) above
Method: Cellular lysates were then probed with antibodies recognizing the Ser-2, Ser-5, and Ser-7 CTD phosphoepitopes. […] At each time point cells were lysed, and the cellular lysates were probed using antibodies as described herein. […] Cells were allowed to grow in medium without inhibitor for 0 to 6 hours. At each time point cells were lysed, and the cellular lysates were probed using antibodies as described herein. […] The kinase reaction was then allowed to proceed for 45 minutes at 30° C.
as §3
Covalent kinase inhibitors have several characteristics that functionally differentiate themselves from their reversible counterparts. […] Washout of compound I-23R, following a 4-hour administration led to the recovery of RNAP II CTD phosphorylation within 1 hour (FIG. 2C). […]

[10] = test system: hTERT-HME1; assay: Proliferation assay, CellTiter-Glo, 72 hour; format: cell-based; settings: immortalized normal mammary epithelial cell line, read-out: Inhibition of proliferation, hTERT-HME1
[11] = test system: Jurkat; assay: Jurkat (proliferation, CellTiter-Glo); format: cell-based; settings: read-out: Calculated IC50, Jurkat
[12] = test system: RNAP II CTD phosphorylation; assay: RNAP II CTD phosphorylation immunoblot in Loucy cells (dose response, time course, washout); format: cell-based; settings: for IC50: 4 hours
Method: Following the treatment, the cells were washed 2-fold with PBS. Fresh medium containing no inhibitors were added back to the cells. The cells were lysed at indicated time points, and the lysates were probed for RNAP II CTD phosphorylation.
CDK7 exerts its regulatory control of transcription largely by phosphorylating RNAP II CTD, which promotes active transcription. […] Reduction of Ser-5 phosphorylation was seen only at higher concentrations.
Covalent kinase inhibitors have several characteristics that functionally differentiate themselves from their reversible counterparts. […] Washout of compound I-23R, following a 4-hour administration led to the recovery of RNAP II CTD phosphorylation within 1 hour (FIG. 2C). […] This phenomenon was also visible using in vitro kinase reactions comparing pre-incubation of compound I-23 with compound I-23 introduced concurrently with ATP.

[13] = biological target: MLK3 (Homo sapiens (Human), UniProt Q16584); assay: Life Technologies LanthaScreen Eu kinase assay, MLK3; format: binding; settings: read-out: Calculated IC50, MLK3
Chain of MLK3 (Q16584 whole entry): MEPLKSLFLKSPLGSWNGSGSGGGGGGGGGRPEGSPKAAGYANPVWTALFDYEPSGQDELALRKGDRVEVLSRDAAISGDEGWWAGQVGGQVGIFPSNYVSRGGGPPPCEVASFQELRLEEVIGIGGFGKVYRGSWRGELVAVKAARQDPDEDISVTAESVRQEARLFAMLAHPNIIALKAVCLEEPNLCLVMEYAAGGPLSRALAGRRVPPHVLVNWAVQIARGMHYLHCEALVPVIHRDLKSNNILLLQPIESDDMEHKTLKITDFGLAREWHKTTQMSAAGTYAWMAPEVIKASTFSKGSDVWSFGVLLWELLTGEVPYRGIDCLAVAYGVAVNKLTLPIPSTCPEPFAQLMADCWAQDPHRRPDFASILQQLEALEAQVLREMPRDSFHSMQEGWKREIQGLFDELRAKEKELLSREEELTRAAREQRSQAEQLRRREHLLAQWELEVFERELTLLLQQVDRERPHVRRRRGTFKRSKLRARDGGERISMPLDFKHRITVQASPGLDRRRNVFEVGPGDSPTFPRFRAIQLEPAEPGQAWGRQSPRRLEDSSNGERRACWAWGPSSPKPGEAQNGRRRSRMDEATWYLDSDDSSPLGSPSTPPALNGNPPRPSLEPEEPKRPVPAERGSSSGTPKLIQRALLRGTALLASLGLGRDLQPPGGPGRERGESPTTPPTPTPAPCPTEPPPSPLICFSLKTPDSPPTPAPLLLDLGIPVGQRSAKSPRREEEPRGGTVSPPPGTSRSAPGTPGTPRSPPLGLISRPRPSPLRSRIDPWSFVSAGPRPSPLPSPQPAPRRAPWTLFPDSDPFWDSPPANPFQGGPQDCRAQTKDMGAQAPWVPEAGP

[14] = test system: SK-ES; assay: Proliferation assay, CellTiter-Glo, 72 hour; format: cell-based; settings: Ewing's sarcoma cell line, read-out: Inhibition of proliferation, SK-ES
[15] = test system: A673; assay: Proliferation assay, CellTiter-Glo, 72 hour; format: cell-based; settings: Ewing's sarcoma cell line, read-out: Inhibition of proliferation, A673
[16] = test system: MCF7; assay: Proliferation assay, CellTiter-Glo, 72 hour; format: cell-based; settings: breast cancer cell line, read-out: Inhibition of proliferation, MCF7
[17] = test system: 143B; assay: Proliferation assay, CellTiter-Glo, 72 hour; format: cell-based; settings: osteosarcoma cell line, read-out: Inhibition of proliferation, 143B

Chain of IRAK1 (P51617 whole entry): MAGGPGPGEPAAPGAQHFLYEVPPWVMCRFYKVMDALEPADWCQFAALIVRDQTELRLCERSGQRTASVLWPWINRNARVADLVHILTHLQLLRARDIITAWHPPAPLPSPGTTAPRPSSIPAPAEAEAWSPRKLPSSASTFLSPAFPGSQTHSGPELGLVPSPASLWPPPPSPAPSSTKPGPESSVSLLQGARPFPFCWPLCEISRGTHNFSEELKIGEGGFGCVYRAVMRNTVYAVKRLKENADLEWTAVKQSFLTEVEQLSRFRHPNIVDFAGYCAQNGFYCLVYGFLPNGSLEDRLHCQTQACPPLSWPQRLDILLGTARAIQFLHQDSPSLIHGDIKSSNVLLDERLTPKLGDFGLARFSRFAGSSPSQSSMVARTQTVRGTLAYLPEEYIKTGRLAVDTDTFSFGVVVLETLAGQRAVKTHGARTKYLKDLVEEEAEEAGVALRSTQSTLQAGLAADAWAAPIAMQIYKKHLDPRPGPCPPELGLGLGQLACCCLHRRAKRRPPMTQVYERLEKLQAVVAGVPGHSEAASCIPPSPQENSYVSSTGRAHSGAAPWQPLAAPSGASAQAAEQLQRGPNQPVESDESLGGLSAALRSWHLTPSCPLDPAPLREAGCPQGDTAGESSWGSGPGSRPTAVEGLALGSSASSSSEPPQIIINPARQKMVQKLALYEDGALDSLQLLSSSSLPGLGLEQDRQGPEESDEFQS

Question: `CN(C)C/C=C/C(=O)Nc1ccc(C(=O)Nc2cccc(Nc3ncc(Cl)c(-c4c[nH]c5ccccc45)n3)c2)cc1` [Formula I-23] was tested. Which IC50 [1] did it give?
Answer: Its IC50 is < 100 nM.

Question: What about the “Reduction of BCL-XL protein levels” value [2] of the same compound?
Answer: Its value is “not reduced even at higher concentrations”.

Question: What about the “Concentration sufficient to elicit a reduction in MCL-1 protein levels” value [3] of the same compound?
Answer: Its value is ≤ 100 nM.

Question: And the EC50 [4]?
Answer: Its EC50 is < 200 nM.

Question: And the IC50 [5]?
Answer: Its IC50 is < 500 nM.

Question: And the IC50 [6]?
Answer: Its IC50 is < 500 nM.

Question: And the “Inhibition of FLAG-CDK7 WT kinase activity” value [7]?
Answer: The value was “inhibited FLAG-CDK7 WT in a dose-dependent fashion”.

Question: And the IC50 [8]?
Answer: The IC50 was < 500 nM.

Question: What about the “Effect of pre-incubation with recombinant CAK complex prior to addition of ATP” value [9] of the same compound?
Answer: The value was “dramatic increase in CDK7 inhibitory activity”.

Question: What about the IC50 [10] of the same compound?
Answer: The IC50 was < 500 nM.

Question: What about the IC50 [11] of the same compound?
Answer: The IC50 was < 100 nM.

Question: What about the IC50 ([12]; read-out: Cellular IC50 for RNAP II CTD Ser-2 phosphorylation) of the same compound?
Answer: Its IC50 is ~20 nM.

Question: What about the IC50 ([12]; read-out: Cellular IC50 for RNAP II CTD Ser-7 phosphorylation) of the same compound?
Answer: The IC50 was ~4 nM.

Question: What about the “Time to complete inhibition of target (inactivation of CDK7, RNAP II CTD phosphorylation)” value ([12]; treated 0 to 4 hours) of the same compound?
Answer: The value was 3 to 4 h.

Question: And the “Recovery of RNAP II CTD phosphorylation after inhibitor washout” value ([12]; washout following a 4-hour administration)?
Answer: The value was “did not restore normal CTD phosphorylation levels”.

Question: What about the IC50 [13] of the same compound?
Answer: The IC50 was < 100 nM.

Question: And the IC50 [14]?
Answer: The IC50 was < 500 nM.

Question: What about the IC50 [15] of the same compound?
Answer: Its IC50 is < 500 nM.

Question: What about the IC50 [16] of the same compound?
Answer: Its IC50 is < 500 nM.

Question: And the IC50 [17]?
Answer: Its IC50 is > 5000 nM.

From patent US10787436B2, “Inhibitors of cyclin-dependent kinase 7 (CDK7)” (Dana-Farber Cancer Institute, Inc., priority 2012, dated 2020)
